Among the data in ChEMBL document CHEMBL1921693, “Efficient synthesis and in vitro antitubercular activity of 1,2,3-triazoles as inhibitors of Mycobacterium tuberculosis” (2011) are MIC and Ratio values, retold here.

By MIC is commonly meant the least concentration at which growth counts as inhibited. A low value points to greater potency.

Converted amounts (≈) assume the structure as drawn. Bounds are passed on as bounds.

The first test deals with Mycobacterium tuberculosis. Nature of the test: Antituberculosis activity against Mycobacterium tuberculosis H37Rv by agar dilution method. Type of test: functional. In general terms: In agar dilution, organisms are placed on agar that contains the substance at set levels.
For `COC(=O)c1nnn(CC(=O)c2ccc(OC)cc2)c1C(=O)OC`, it took 12.5 µg/mL (≈ 37.5 µM) to inhibit growth (MIC). Turning to `CCOC(=O)c1nnn(CC(=O)c2ccc(Cl)cc2)c1C(=O)OCC`, the MIC worked out at 3.13 µg/mL (≈ 8.56 µM). Compound `NNC(=O)c1ccncc1` [ISONIAZID] returned an MIC of 0.75 µg/mL (≈ 5.47 µM). Turning to `CCOC(=O)c1nnn(CC(=O)c2ccc(Br)cc2)c1C(=O)OCC`, it took 1.56 µg/mL (≈ 3.8 µM) to inhibit growth (MIC).

For the compound `COC(=O)c1nnn(CC(=O)c2ccc(Cl)cc2)c1C(=O)OC`, the lowest concentration to inhibit growth (MIC) was 6.25 µg/mL (≈ 18.5 µM). In the case of `CCOC(=O)Cn1nnc(C(=O)OCC)c1C(=O)OCC`, the MIC was greater than 25 µg/mL. On the same count and under the same terms, the same measure for `COC(=O)Cn1nnc(C(=O)OC)c1C(=O)OC`: greater than 25 µg/mL; for `CCOC(=O)c1nnn(CC(=O)c2ccc(OC)cc2)c1C(=O)OCC`: 6.25 µg/mL (≈ 17.3 µM). With `CC[C@@H](CO)NCCN[C@@H](CC)CO` [ETHAMBUTOL], the MIC worked out at 3.25 µg/mL (≈ 15.9 µM). In turn, `CCOC(=O)c1nnn(CC(=O)OC)c1C(=O)OCC` returned an MIC greater than 25 µg/mL. With `CCOC(=O)c1nnn(CC(=O)c2ccccc2)c1C(=O)OCC`, the lowest concentration to inhibit growth (MIC) was 3.13 µg/mL (≈ 9.45 µM). The compound `CCOC(=O)Cn1nnc(C(=O)OC)c1C(=O)OC` displayed an MIC greater than 25 µg/mL. Turning to `COC(=O)c1nnn(CC(=O)c2ccc(Br)cc2)c1C(=O)OC`, the MIC was found to be 3.13 µg/mL (≈ 8.19 µM). As to `COC(=O)c1nnn(CC(=O)c2ccccc2)c1C(=O)OC`, the MIC was 12.5 µg/mL (≈ 41.2 µM). In turn, `CCOC(=O)c1nnn(Cc2ccccc2)c1C(=O)OCC` yielded an MIC of 12.5 µg/mL (≈ 41.2 µM).

For the compound `COC(=O)c1nnn(Cc2ccccc2)c1C(=O)OC`, the MIC is 25 µg/mL (≈ 90.8 µM).

The next test deals with Mycobacterium tuberculosis. Nature of the test: Ratio of ethambutol MIC to compound MIC for Mycobacterium tuberculosis H37Rv. The format is functional.
With `CCOC(=O)c1nnn(CC(=O)c2ccc(Br)cc2)c1C(=O)OCC`, the Ratio turned out to be 2.08.
